The Emax is the size of the effect at its maximum, as opposed to the concentration needed. As usually defined, the Ki is the equilibrium dissociation constant of an inhibitor or competing ligand from its target.

Series [1] concerns the target T1, hMOR (Homo sapiens, UniProt P35372). Nature of the series: cell-based. The arrangement: expressed in transfected cells.
The target in series [2] is T1, hMOR. Nature of the series: Radioligand binding assay (Eurofins Cerep), [3H]DAMGO displacement. As to conditions: read-out: MOR Ki ± SEM.
Series [3] addresses hKOR (Homo sapiens, UniProt P41145). The series is described as follows: Radioligand binding assay (Eurofins Cerep), [3H]U69,593 displacement. The settings on record: read-out: KOR Ki ± SEM.
The target of series [4] is hDOR (Homo sapiens, UniProt P41143). Nature of the series: Radioligand binding assay (Eurofins Cerep), [3H]DADLE displacement. As to conditions: read-out: DOR Ki ± SEM.
In series [5] the target is T2, α2A adrenergic receptor (Homo sapiens, UniProt P08913).
T2 construct: Eurofins Cerep (contract screening)
T2 sequence (P08913 1-465): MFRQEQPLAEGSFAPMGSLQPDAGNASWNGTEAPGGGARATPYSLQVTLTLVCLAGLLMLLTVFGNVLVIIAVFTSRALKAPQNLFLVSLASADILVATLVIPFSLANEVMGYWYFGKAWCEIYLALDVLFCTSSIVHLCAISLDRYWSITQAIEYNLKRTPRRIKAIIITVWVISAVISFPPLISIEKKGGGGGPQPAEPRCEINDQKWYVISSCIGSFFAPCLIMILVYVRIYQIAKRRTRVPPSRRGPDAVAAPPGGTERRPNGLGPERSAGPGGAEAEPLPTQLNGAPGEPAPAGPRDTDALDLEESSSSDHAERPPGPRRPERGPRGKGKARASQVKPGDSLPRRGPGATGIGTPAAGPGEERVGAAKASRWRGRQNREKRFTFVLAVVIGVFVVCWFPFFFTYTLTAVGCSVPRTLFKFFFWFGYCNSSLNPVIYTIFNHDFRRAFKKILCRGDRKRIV
The series is described as follows: Radioligand binding assay (Eurofins Cerep), [3H]RX 821002 displacement. The settings on record: read-out: Alpha2A Ki ± SEM.

Series [6] is described as follows: Metabolic stability in rat liver microsomes. The series is classed as in vitro ADME. As to conditions: for Whole liver clearance, CL int, H: in vitro intrinsic clearance in RLM scaled to whole organ (rat); for RLM stability: rat liver microsomes 1 mg/ml, substrate 1 μM, NADPH, 37° C. The method, then: In vitro metabolic stability of each compound was determined using rat liver microsomes in triplicate. Verapamil was used as a positive control to check the activity of the microsomes. The incubation mixtures consisted of rat liver microsomes (1 mg microsomal protein/ml), substrate (1 μM), and reduced NADPH (1 mM) in a total volume of 0.4 ml potassium phosphate buffer (50 mM, pH 7.4). Reactions were initiated with the addition of NADPH and kept in an incubator shaker at 37° C. Aliquots of 25 μl were withdrawn at 0, 5, 10, 15, 30, and 60 min and mixed with 125 μl of acetonitrile with formic acid (0.1% v/v) containing phenacetin (50 ng/ml; internal standard) for the termination of the reaction. The samples were then vortex mixed and filtered through a […] 96-well membrane filtration plate under centrifugation at speed of 2000×g for 5 min at 4° C. The filtrates were subjected to UPLC-mass spectrometry (MS/MS) analysis.
The intrinsic clearance of the compounds was calculated using a half-life employing the ‘substrate depletion’ approach. The apparent half-life was calculated from the pseudo-first-order rate constants obtained by linear regression of log (concentration) and time plots. The in vitro intrinsic clearance of IFN was estimated using the formula: […]
Where k is the slope of the line obtained by plotting the natural logarithmic of the percentage of parent remaining versus time and V is the volume of incubation.
The in vitro intrinsic clearance was scaled to whole-organ (hepatic) in vivo intrinsic CL (CLint,H) using the scaling factors available in the literature using equation (Mahmood I. Application of allometric principles for the prediction of pharmacokinetics in human and veterinary drug development. Advanced drug delivery reviews, 2007, 59(11), 1177-1192)
MPPGL represents the microsomal protein per gram of Sprague Dawley rat liver (45 mg/g) and liver weight per kg body weight was 40 g/kg.
A general note: Liver microsomes are vesicles of endoplasmic reticulum, rich in cytochrome P450 enzymes.

Read-outs that look alike come from different tables or passages of the source. Where only a bound is given, the exact number is not on record here.

Sequence of hKOR (P41145 whole entry): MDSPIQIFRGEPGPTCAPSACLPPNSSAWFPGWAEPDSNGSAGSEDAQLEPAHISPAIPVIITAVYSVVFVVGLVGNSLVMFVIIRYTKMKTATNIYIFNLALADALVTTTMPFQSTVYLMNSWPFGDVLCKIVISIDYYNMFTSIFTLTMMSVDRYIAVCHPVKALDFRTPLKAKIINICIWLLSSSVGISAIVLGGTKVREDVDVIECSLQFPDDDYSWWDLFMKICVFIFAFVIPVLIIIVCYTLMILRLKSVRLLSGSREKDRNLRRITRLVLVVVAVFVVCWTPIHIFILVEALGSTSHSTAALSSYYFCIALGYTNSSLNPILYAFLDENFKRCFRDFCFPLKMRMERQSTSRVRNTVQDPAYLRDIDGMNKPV
T1 sequence (P35372 whole entry): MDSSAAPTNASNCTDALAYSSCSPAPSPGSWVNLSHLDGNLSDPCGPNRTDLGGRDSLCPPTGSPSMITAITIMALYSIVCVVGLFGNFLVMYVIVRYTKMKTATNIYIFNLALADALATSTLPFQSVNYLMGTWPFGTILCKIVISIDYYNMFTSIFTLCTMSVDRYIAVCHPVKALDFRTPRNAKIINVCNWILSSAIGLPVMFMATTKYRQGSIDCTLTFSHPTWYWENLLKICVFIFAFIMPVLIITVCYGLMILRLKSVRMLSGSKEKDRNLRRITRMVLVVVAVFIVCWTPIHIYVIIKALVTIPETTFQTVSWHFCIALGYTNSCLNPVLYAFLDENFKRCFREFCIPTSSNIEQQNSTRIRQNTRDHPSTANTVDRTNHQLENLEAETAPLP
Sequence of hDOR (P41143 whole entry): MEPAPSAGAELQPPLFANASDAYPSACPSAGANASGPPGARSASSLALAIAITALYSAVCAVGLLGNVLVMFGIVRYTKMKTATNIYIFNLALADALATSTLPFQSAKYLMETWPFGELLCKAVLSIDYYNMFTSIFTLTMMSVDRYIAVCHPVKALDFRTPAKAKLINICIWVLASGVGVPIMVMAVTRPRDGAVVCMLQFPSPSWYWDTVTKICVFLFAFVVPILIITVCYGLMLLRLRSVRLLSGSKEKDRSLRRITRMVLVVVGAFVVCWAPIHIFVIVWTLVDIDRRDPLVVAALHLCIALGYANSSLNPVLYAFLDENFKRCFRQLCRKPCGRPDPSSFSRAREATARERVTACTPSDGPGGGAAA

Regarding `C[C@@H](NC(=O)[C@@H](N)Cc1ccc(O)cc1)C(=O)NCC(=O)N(C)[C@@H](Cc1ccccc1)C(=O)NCCO` [DAMGO, reference compound], the maximal effect (Emax) in series [1] (CHO, read-out: MOR Emax ± SEM (%)) was 106 ± 2%.
Turning to `CC[C@@H]1CN2CCc3c([nH]c4cccc(OC)c34)[C@@H]2C[C@@H]1/C(=C\OC)C(=O)NC1CCCCC1` [SUSM-519, (E)-N-cyclohexyl-2-((2S,3S,12bS)-3-ethyl-8-methoxy-1,2,3,4,6,7,12,12b-octahydroindolo[2,3-a]quinolizin-2-yl)-3-methoxyacrylamide], the inhibition constant (Ki) in series [2] (Table A1, data summary #1) was 3.59 ± 0.663 µM; in series [2] (Table A4, data summary #2), 2.18 ± 0.603 µM; in series [3] (Table A1, data summary #1), 2.79 ± 0.64 µM; in series [3] (Table A4, data summary #2) it was 2.79 ± 0.64 µM; in series [4] (Table A1, data summary #1), more than 10 µM; in series [4] (Table A4, data summary #2), more than 10 µM. In addition, in series [5] (Table A4, data summary #2), the Ki was 0.933 ± 0.242 µM. Further, in series [6], the “Whole liver clearance, CL int, H” value came out at 38.4 mL/min/kg. Further, the “RLM stability” value in series [6] was 30 min.
Consider `CC[C@@H]1CN2CCc3c([nH]c4cccc(OC)c34)[C@@H]2C[C@@H]1/C(=C\OC)C(=O)N(C)CC` [SUSM-520, (E)-N-ethyl-2-((2S,3S,12bS)-3-ethyl-8-methoxy-1,2,3,4,6,7,12,12b-octahydroindolo[2,3-a]quinolizin-2-yl)-3-methoxy-N-methylacrylamide], for which the Ki in series [2] (Table A1, data summary #1) is 0.459 ± 0.0407 µM; in series [2] (Table A4, data summary #2) it was 0.452 ± 0.033 µM; in series [3] (Table A1, data summary #1), 4.78 ± 1.14 µM; in series [3] (Table A4, data summary #2) it was 4.78 ± 1.14 µM; in series [4] (Table A1, data summary #1), more than 10 µM; in series [4] (Table A4, data summary #2), more than 10 µM. Also, in series [5] (Table A4, data summary #2), the Ki was found to be 0.938 ± 0.223 µM. The “Whole liver clearance, CL int, H” value in series [6] was found to be 879.7 mL/min/kg. For the same compound, the “RLM stability” value in series [6] is listed as less than 5 min.
For `CC[C@@H]1CN2CCc3c([nH]c4cccc(OC)c34)[C@@H]2C[C@@H]1/C(=C\OC)C(=O)NC` [SUSM-25, (E)-2-((2S,3S,12bS)-3-ethyl-8-methoxy-1,2,3,4,6,7,12,12b-octahydroindolo[2,3-a]quinolizin-2-yl)-3-methoxy-N-methylacrylamide], the Ki is 4.02 ± 0.728 µM in series [2] (Table A1, data summary #1); 3.52 ± 0.763 µM in series [2] (Table A4, data summary #2); more than 10 µM in series [3] (Table A1, data summary #1); more than 10 µM in series [3] (Table A4, data summary #2); more than 10 µM in series [4] (Table A1, data summary #1); more than 10 µM in series [4] (Table A4, data summary #2). The Ki came out at 7.04 ± 1.82 µM in series [5] (Table A1, data summary #1) and 6.74 ± 1.91 µM in series [5] (Table A4, data summary #2). Further, the “Whole liver clearance, CL int, H” value in series [6] stood at 8.9 mL/min/kg. Moreover, in series [6], the “RLM stability” value is recorded as more than 60 min.
Take `CC[C@@H]1CN2CCc3c([nH]c4cccc(OC)c34)[C@@H]2C[C@@H]1/C(=C\OC)C(=O)N1CCCC1` [SUSM-507, (E)-2-((2S,3S,12bS)-3-ethyl-8-methoxy-1,2,3,4,6,7,12,12b-octahydroindolo[2,3-a]quinolizin-2-yl)-3-methoxy-1-(pyrrolidin-1-yl)prop-2-en-1-one]: the Ki in series [2] (Table A1, data summary #1) was 0.655 ± 0.0766 µM; in series [2] (Table A4, data summary #2), 0.655 ± 0.0766 µM; in series [3] (Table A1, data summary #1), more than 10 µM; in series [3] (Table A4, data summary #2), more than 10 µM; in series [4] (Table A1, data summary #1), more than 10 µM; in series [4] (Table A4, data summary #2) it was 6.26 ± 3.17 µM. In addition, the Ki in series [5] (Table A1, data summary #1) came out at 9.85 ± 1.57 µM; in series [5] (Table A4, data summary #2), 4.99 ± 1.02 µM. The “Whole liver clearance, CL int, H” value in series [6] is 833.8 mL/min/kg. Moreover, in series [6], the “RLM stability” value is given as less than 5 min.
Take `CC[C@@H]1CN2CCc3c([nH]c4cccc(OC)c34)[C@@H]2C[C@@H]1/C(=C\OC)C(=O)N(CC)CC` [SUSM-509, (E)-N,N-diethyl-2-((2S,3S,12bS)-3-ethyl-8-methoxy-1,2,3,4,6,7,12,12b-octahydroindolo[2,3-a]quinolizin-2-yl)-3-methoxyacrylamide]: the Ki in series [2] (Table A1, data summary #1) is 1.13 ± 0.0738 µM; in series [2] (Table A4, data summary #2), 1.13 ± 0.0738 µM; in series [3] (Table A1, data summary #1) it was more than 10 µM; in series [3] (Table A4, data summary #2), more than 10 µM; in series [4] (Table A1, data summary #1) it was more than 10 µM; in series [4] (Table A4, data summary #2), more than 10 µM. For the same compound, the Ki in series [5] (Table A1, data summary #1) amounted to 5.2 ± 0.621 µM; in series [5] (Table A4, data summary #2), 2.73 ± 0.488 µM. Moreover, in series [6], the “RLM stability” value is listed as less than 5 min.
For the compound `CC[C@@H]1CN2CC[C@]3(Nc4cccc(OC)c4C3=O)[C@@H]2C[C@@H]1/C(=C\OC)C(=O)OC` [Mitragynine pseudoindoxyl, reference compound], the Ki was found to be 0.0013 µM in series [2] (Table A1, data summary #1); 0.15 µM in series [3] (Table A1, data summary #1); 0.00293 µM in series [4] (Table A1, data summary #1). Moreover, in series [1] (Table A1, data summary #1), the “MOR Emax ± SEM (% DAMGO)” value came to 42.4 % DAMGO.
`CC[C@@H]1CN2CCc3c([nH]c4cccc(OC)c34)[C@@H]2C[C@@H]1/C(=C\OC)C(=O)NC1CCCC1` [SUSM-506, (E)-N-cyclopentyl-2-((2S,3S,12bS)-3-ethyl-8-methoxy-1,2,3,4,6,7,12,12b-octahydroindolo[2,3-a]quinolizin-2-yl)-3-methoxyacrylamide]: the Ki in series [2] (Table A1, data summary #1) is 1.38 ± 0.176 µM; in series [2] (Table A4, data summary #2) it was 1.38 ± 0.176 µM; in series [3] (Table A1, data summary #1), 5.85 ± 0.657 µM; in series [3] (Table A4, data summary #2), 5.85 ± 0.657 µM; in series [4] (Table A1, data summary #1) it was more than 10 µM; in series [4] (Table A4, data summary #2), more than 10 µM. For the same compound, the Ki in series [5] (Table A1, data summary #1) was 8.97 ± 0.572 µM; in series [5] (Table A4, data summary #2), 5.75 ± 0.568 µM. In addition, the “Whole liver clearance, CL int, H” value in series [6] was 36.4 mL/min/kg. The “RLM stability” value in series [6] was 30 min.

For the origin of these results see US20260234147A1 (priority 2023, published 2026).
